Laboratory results from PMC2363125 (British Journal of Cancer, 1999).
Values joined by “and” are separate entries in the source; they are usually repeats but may differ in a detail not shown here. Equal values may be shown once. “Also recorded” adds a separate entry of the source.

Tests used:
[1] = tested on: thymidine uptake (nucleoside transport, es and ei equilibrative carriers) in L1210 cells; assay: Nucleoside transport inhibition assay (thymidine uptake, rapid mixing technique); assay type: cell-based, murine; details: for IC50: absence of AGP, point-to-point curve; for IC50 / % inhibition of thymidine uptake: L1210
From the text: Antimetabolite inhibitors of de novo purine and pyrimidine synthesis are used extensively in cancer chemotherapeutic regimes (Schilsky, 1992). In particular, inhibition of thymidylate synthase (TS) is an attractive target for antimetabolite chemotherapy because thymine is the only nucleobase found exclusively in DNA and TS is a key enzyme, possibly the rate-limiting step, in DNA synthesis. One locus of action of 5-fluorouracil (5-FU), which is widely used for the treatment of colorectal, breast and head-and- neck cancer, is TS inhibition following its intracellular conversion to 5-FdUMP. […] Inhibition of TS results in the depletion of intracellular dTTP and, as a result of elevated dUMP levels, an accummulation of dUTP. This nucleotide pool imbalance contributes to DNA strand breakage and cell death (Curtin et al, 1991). […] Furthermore, resistance to antimetabolities mediated by nucleoside salvage may increase with malignancy (Fox et al, 1991; Kinsella and Harran, 1991). In addition, release of nucleic acids from dead cells may result in high local concen- trations of salvageable nucleosides and bases in tumours. Salvage of pre-formed nucleosides is dependent on uptake across the plasma membrane into the cell. At physiological nucle- oside concentrations the principal mode of nucleoside uptake is via the es and ei equilibrative carriers, described as such on the basis of their sensitivity (es) or insensitivity (ei) to the transport inhibitor nitrobenzylmercaptopurine riboside (NBMPR). […] Two antifolate TS inhibitors were selected for study: the classical antifolate, CB3717 (N10 -pro- pargyl-5,8-dideazafolic acid), and the non-classical antifolate TS inhibitor, nolatrexed (AG337, Thymitaq, 3,4-dihydro-2-amino- 6-methyl-4-oxo-5-(4-pyridylthio)-quinazoline dihydrochloride) (Webber et al, 1996). In addition, potentiation of the cytotoxicity of 5-FU was investigated. […] MATERIALS AND METHODS Drugs CB3717 (a gift from Zeneca Pharmaceuticals, Alderley Park, UK) was dissolved in 0.15 M sodium hydrogen carbonate and stored at 4C. […] All other chemicals were obtained from Sigma unless stated otherwise. Cell culture Murine leukaemia L1210 cells were used because their nucleoside transport characteristics have been well defined (Crawford et al, 1990). Cells were maintained as exponentially growing cultures (< 8 x 10^5 cells ml-1 ) in RPMI-1640 medium supplemented with 10% (v/v) fetal calf serum (Sigma), at 37C in an atmosphere of 5% carbon dioxide in air. […] For growth inhibition and cytotoxicity assays, cells were adapted to grow in RPMI medium supplemented with 10% (v/v) dialysed serum (dialysed for 24 h at 4C against two changes of 9 volumes of phosphate-buffered saline (PBS) containing 1 g activated charcoal L-1 and a further two changes of 9 volumes of PBS) to remove thymidine. […] Cells were routinely tested to exclude mycoplasma contamination (Chen, 1977). Nucleoside transport inhibition assay Thymidine uptake was assayed in L1210 cells using a modifica- tion of the rapid mixing technique of Wohlheuter et al (1978). The uptake of 100 µM thymidine by […] was followed at 2-second intervals over a 12-second time course in the presence or absence of inhibitor in 1% or 5% (v/v) DMSO. In experiments to determine the effect of AGP, the uptake of thymidine was also measured in the presence of 5 mg ml-1 human AGP (Sigma), which is the upper limit of plasma AGP concentrations in cancer patients, i.e. approx- imately 125 M (Kremer et al, 1988).

[2] = tested on: L1210 cells; assay: Growth inhibition assay, CB3717 with or without thymidine and transport inhibitor, 48 h cell count; assay type: cell-based, murine; details: for % Control cell growth + 3 M CB3717, + 1 M TdR / % Control cell growth + 3 M CB3717, no TdR / % Control cell growth + 10 M CB3717, + 1 M TdR / % Control cell growth + 10 M CB3717, no TdR: 10 μM transport inhibitor, normalized to inhibitor alone
[3] = tested on: L1210 cells; assay: in vitro; details: for CC50: Mus musculus, L1210, 16 h, read-out: LC50
From the text: (§1) In particular, inhibition of thymidylate synthase (TS) is an attractive target for antimetabolite chemotherapy because thymine is the only nucleobase found exclusively in DNA and TS is a key enzyme, possibly the rate-limiting step, in DNA synthesis. One locus of action of 5-fluorouracil (5-FU), which is widely used for the treatment of colorectal, breast and head-and- neck cancer, is TS inhibition following its intracellular conversion to 5-FdUMP. […] Inhibition of TS results in the depletion of intracellular dTTP and, as a result of elevated dUMP levels, an accummulation of dUTP. […] In addition, release of nucleic acids from dead cells may result in high local concen- trations of salvageable nucleosides and bases in tumours. Salvage of pre-formed nucleosides is dependent on uptake across the plasma membrane into the cell. At physiological nucle- oside concentrations the principal mode of nucleoside uptake is via the es and ei equilibrative carriers, described as such on the basis of their sensitivity (es) or insensitivity (ei) to the transport inhibitor nitrobenzylmercaptopurine riboside (NBMPR). […] In addition, potentiation of the cytotoxicity of 5-FU was investigated. […] All other chemicals were obtained from Sigma unless stated otherwise. […] For growth inhibition and cytotoxicity assays, cells were adapted to grow in RPMI medium supplemented with 10% (v/v) dialysed serum (dialysed for 24 h at 4C against two changes of 9 volumes of phosphate-buffered saline (PBS) containing 1 g activated charcoal L-1 and a further two changes of 9 volumes of PBS) to remove thymidine. […] The uptake of 100 M thymidine by […] was followed at 2-second intervals over a 12-second time course in the presence or absence of inhibitor in 1% or 5% (v/v) DMSO. […] Exponentially growing L1210 cells were washed with and resus- pended in ice-cold transport buffer (130 mM sodium chloride, 5 mM potassium chloride, 1 mM magnesium chloride, 5 mM NaH2 PO4 , 10 mM glucose and 10 mM HEPES pH 7.4) at 2-4 x 10^7 cells ml-1 . […] Transport was initiated by adding 50 l of 300 M thymidine in transport buffer, containing 25 Ci ml-1 [methyl-3 H]thymidine (Sp. Act. 1.5-2.2 TBq mmol-1; Amersham, UK) and 2 Ci ml-1 [U-14 C]sucrose (17-27 GBq mmol-1; Amersham), to each tube in turn at 1-second intervals, giving final concentrations of: […] in transport buffer 5 mg ml-1 AGP, 100 M thymidine and 1% or 5% (v/v) DMSO inhibitor. […] The tubes were immediately centrifuged at 12 000g for 2 min at room temperature causing the cells to pass through the oil and into the KOH. […] Cell number and viability in each assay was determined by haemocytometer counting using trypan blue exclu- sion. After centrifugation the tubes were capped and cut in the oil layer such that the bottom portion (cells solubilized in KOH) fell into a 20 ml scintillation vial. […] The rate of thymidine uptake in the presence and absence of inhibitor was calculated by unweighted linear regres- sion analysis of thymidine uptake (pmol 10-6 cells) vs time (seconds) using GraphPad PRISMTM software (GraphPad Software Inc. San Diego, CA, USA). […] Kt and Tmax values were calculated using the equation describing a one-site binding hyperbola, fitted using GraphPad PRISM software. […] The DMSO concentration was controlled so as to be present at 1% (v/v) in the final incubation. Replicate aliquots of the remaining cell suspension were counted to obtain a time zero cell count.

[4] = tested on: thymidine transport (nucleoside transporter) in L1210 cells; assay: Inhibition kinetics of thymidine transport (Kt, Tmax, Dixon plot Ki)
From the text: as §1

[5] = tested on: human cancer cell lines; design: method as in P Smith, manuscript in preparation; details: ref P Smith, manuscript in preparation; cited from earlier work
[6] = inhibitor 1 μM, no AGP, 100 μM thymidine
[7] = inhibitor 10 μM + 5 mg ml-1 AGP
[8] = inhibitor 10 μM, no AGP, 100 μM thymidine
[9] = 1 μM transport inhibitor, data not shown
[10] = LC50 alone/LC50 + 1 μM inhibitor

Compound | IC50 [1] | % inhibition of thymidine uptake [1, 6] [%] | % inhibition of thymidine uptake [1, 7] [%] | % inhibition of thymidine uptake [1, 8] [%] | % Control cell growth + 3 M CB3717, + 1 M TdR ([2]; 48 h) [%] | % Control cell growth + 3 M CB3717, no TdR ([2]; 48 h) [%] | % Control cell growth + 10 M CB3717, + 1 M TdR ([2]; 48 h) [%] | % Control cell growth + 10 M CB3717, no TdR ([2]; 48 h) [%] | other results
CC1(C)OCC(COc2nc(N3CCCCC3)c3nc(OCC4COC(C)(C)O4)nc(N4CCCCC4)c3n2)O1 (stereo not drawn) [NU3026, 2,6-di-(2,2-dimethyl-1,3-dioxolan-4-yl)-methoxy-4,8-di-piperidinopyrimido-pyrimidine] | 1200 nM and 1100 nM | 47 | 62 | 87 | 26 | 8 | 20 | 1 | potentiation of CB3717 growth inhibition [2, 9]: modest potentiation
Cc1ccc2nc(N)[nH]c(=O)c2c1Sc1ccncc1.Cl.Cl [Nolatrexed, 3,4-dihydro-2-amino-6-methyl-4-oxo-5-(4-pyridylthio)-quinazoline dihydrochloride] | – | – | – | – | – | – | – | – | effect of 1 μM thymidine on cytotoxic effect of 10 μM nolatrexed [3]: completely prevented; cells surviving ([3]; 10 μM nolatrexed alone, 16 h): 10-20%; CC50 [3]: 3100 nM
COCC(COc1nc(N2CCCCC2)c2nc(OCC(COC)OC)nc(N3CCCCC3)c2n1)OC (stereo not drawn) [NU3059, 2,6-bis-(2,3-dimethoxypropoxy)-4,8-di-piperidino-pyrimidopyrimidine] | 1900 nM | 38 | 67 | 87 | 10 | 5 | 7 | 0 | potentiation of CB3717 growth inhibition [2, 9]: modest potentiation; reversal of thymidine rescue from CB3717 growth inhibition [2, 9]: partial reversal
COCCN(CCOC)c1nc(N2CCCCC2)c2nc(N(CCOC)CCOC)nc(N3CCCCC3)c2n1 [NU3060, 2,6-bis[N,N-di(2-methoxy)ethyl]-4,8-di-piperidino-pyrimidopyrimidine] | 2100 nM | 29 | 43 | 86 | 59 | 29 | 37 | 3 | –
C#CCN(Cc1ccc2nc(N)[nH]c(=O)c2c1)c1ccc(C(=O)N[C@@H](CCC(=O)O)C(=O)O)cc1 [CB3717, N10-propargyl-5,8-dideazafolate, reference compound] | – | – | – | – | – | – | – | – | % Control cell growth, 3 M CB3717, + 1 M TdR ([2]; No inhibitor, 48 h): 104%; % Control cell growth, 3 M CB3717, no TdR ([2]; No inhibitor, 48 h): 40%; % Control cell growth, 10 M CB3717, + 1 M TdR ([2]; No inhibitor, 48 h): 107%; % Control cell growth, 10 M CB3717, no TdR ([2]; No inhibitor, 48 h): 5%
COc1ccc(CNc2nc(N(CCO)CCO)nc3c(NCc4ccc(OC)cc4)nc(N(CCO)CCO)nc23)cc1 [NU3076] | 250 nM | 56 | 89 | 96 | – | – | – | – | effect of AGP on inhibition of thymidine uptake ([1]; AGP 5 mg ml-1, inhibitor 1 and 10 μM): not significantly affected; % inhibition of thymidine uptake ([1]; inhibitor 1 μM + 5 mg ml-1 AGP): 46%; type of inhibition of thymidine uptake ([4]; L1210): mixed-type inhibition; Ki ([4]; read-out: Ki for inhibition of thymidine uptake, L1210, abstract): 100 nM; cell survival, inhibitor alone (cytotoxic per se) ([3]; 1 μM inhibitor alone, L1210): 100%; prevention of thymidine rescue from nolatrexed cytotoxicity ([3]; 1 μM inhibitor, 10 μM nolatrexed + 1 μM thymidine): partially blocked; also recorded: reduced but not blocked completely; potentiation of 5-FU cytotoxicity ([3]; 1 μM inhibitor, high 5-FU concentrations (30 and 100 μM), not significant at lower concentrations): Significant potentiation; EF50 (enhancement factor), 5-FU [3, 10]: 1.1; EF50 (enhancement factor), nolatrexed [3, 10]: 1.6; EF90 (enhancement factor), 5-FU ([3]; LC90 alone/LC90 + 1 μM inhibitor): 1.3; reduction of nolatrexed LC90 ([3]; absence of salvageable thymidine, abstract): > threefold; block of thymidine rescue from TS inhibitor cytotoxicity [5]: can block thymidine rescue
O=c1[nH]cc(F)c(=O)[nH]1 [5-FU, 5-fluorouracil] | – | – | – | – | – | – | – | – | CC50 [3]: 3700 nM
